Assay results reported in the NIST ThermoML archive (doi:10.1021/acs.jced.7b00221).
± gives the expanded uncertainty stated by the source.

Assay: xn = mol fraction of the nth substance listed
Conditions: 100 kPa, Liquid; for viscosity: Cone and plate viscometry; for mass density: Vibrating tube method

CCn1cc[n+](C)c1.O=S(=O)([N-]S(=O)(=O)C(F)(F)F)C(F)(F)F + CCCCCC[n+]1ccn(C)c1.O=S(=O)([N-]S(=O)(=O)C(F)(F)F)C(F)(F)F
Conditions	mass density [kg/m3]	viscosity [mPa·s]
278.15 K, x2 = 0	–	80 ± 10
278.15 K, x2 = 0.15	–	89 ± 11
278.15 K, x2 = 0.3	–	95 ± 12
278.15 K, x2 = 0.5	–	120 ± 15
278.15 K, x2 = 0.7	–	153 ± 19
278.15 K, x2 = 0.85	–	181 ± 22
283.15 K, x2 = 0	1534.1 ± 4.1	63 ± 8
283.15 K, x2 = 0.15	1507.1 ± 4.1	70 ± 8
283.15 K, x2 = 0.3	1481.8 ± 4.1	74 ± 9
283.15 K, x2 = 0.5	1451 ± 4.1	92 ± 11
283.15 K, x2 = 0.7	1422.9 ± 4	116 ± 14
283.15 K, x2 = 0.85	1403.6 ± 4	135 ± 16
288.15 K, x2 = 0	1529 ± 4.1	50 ± 6
288.15 K, x2 = 0.15	1502.1 ± 4.1	56 ± 7
288.15 K, x2 = 0.3	1476.9 ± 4.1	58 ± 7
288.15 K, x2 = 0.5	1446.3 ± 4.1	72 ± 9
288.15 K, x2 = 0.7	1418.2 ± 4	89 ± 11
288.15 K, x2 = 0.85	1399 ± 4	102 ± 12
293.15 K, x2 = 0	1523.9 ± 4.1	–
293.15 K, x2 = 0.15	1497.1 ± 4.1	–
293.15 K, x2 = 0.3	1472 ± 4.1	–
293.15 K, x2 = 0.5	1441.5 ± 4.1	58 ± 7
293.15 K, x2 = 0.7	1413.5 ± 4	70 ± 8
293.15 K, x2 = 0.85	1394.4 ± 4	79 ± 10
295.15 K, x2 = 0	1521.9 ± 4.1	–
295.15 K, x2 = 0.15	1495.1 ± 4.1	–
295.15 K, x2 = 0.3	1470.1 ± 4.1	–
295.15 K, x2 = 0.5	1439.6 ± 4	–
295.15 K, x2 = 0.7	1411.6 ± 4	–
295.15 K, x2 = 0.85	1392.5 ± 4	–
298.15 K, x2 = 0	1518.9 ± 4	–
298.15 K, x2 = 0.15	1492.2 ± 4.1	–
298.15 K, x2 = 0.3	1467.2 ± 4.1	–
298.15 K, x2 = 0.5	1436.7 ± 4	–
298.15 K, x2 = 0.7	1408.8 ± 4	57 ± 7
298.15 K, x2 = 0.85	1389.7 ± 4	63 ± 8
303.15 K, x2 = 0	1513.9 ± 4	–
303.15 K, x2 = 0.15	1487.2 ± 4.1	–
303.15 K, x2 = 0.3	1462.3 ± 4.1	–
303.15 K, x2 = 0.5	1431.9 ± 4	–
303.15 K, x2 = 0.7	1404.1 ± 4	–
303.15 K, x2 = 0.85	1385.1 ± 4	51 ± 6
308.15 K, x2 = 0	1508.9 ± 4	–
308.15 K, x2 = 0.15	1482.3 ± 4.1	–
308.15 K, x2 = 0.3	1457.5 ± 4.1	–
308.15 K, x2 = 0.5	1427.2 ± 4	–
308.15 K, x2 = 0.7	1399.5 ± 4	–
308.15 K, x2 = 0.85	1380.5 ± 4	–
313.15 K, x2 = 0	1503.9 ± 4	–
313.15 K, x2 = 0.15	1477.4 ± 4.1	–
313.15 K, x2 = 0.3	1452.7 ± 4.1	–
313.15 K, x2 = 0.5	1422.5 ± 4	–
313.15 K, x2 = 0.7	1394.8 ± 4	–
313.15 K, x2 = 0.85	1375.9 ± 4	–
318.15 K, x2 = 0	1499 ± 4	–
318.15 K, x2 = 0.15	1472.5 ± 4.1	–
318.15 K, x2 = 0.3	1447.9 ± 4.1	–
318.15 K, x2 = 0.5	1417.8 ± 4	–
318.15 K, x2 = 0.7	1390.1 ± 4	–
318.15 K, x2 = 0.85	1371.3 ± 4	–
323.15 K, x2 = 0	1494.1 ± 4	–
323.15 K, x2 = 0.15	1467.7 ± 4.1	–
323.15 K, x2 = 0.3	1443.1 ± 4.1	–
323.15 K, x2 = 0.5	1413.1 ± 4	–
323.15 K, x2 = 0.7	1385.5 ± 4	–
323.15 K, x2 = 0.85	1366.8 ± 4	–
328.15 K, x2 = 0	1489.1 ± 4	–
328.15 K, x2 = 0.15	1462.8 ± 4.1	–
328.15 K, x2 = 0.3	1438.3 ± 4.1	–
328.15 K, x2 = 0.5	1408.4 ± 4	–
328.15 K, x2 = 0.7	1380.9 ± 4	–
328.15 K, x2 = 0.85	1362.2 ± 4	–
333.15 K, x2 = 0	1484.2 ± 4	–
333.15 K, x2 = 0.15	1458 ± 4.1	–
333.15 K, x2 = 0.3	1433.5 ± 4.1	–
333.15 K, x2 = 0.5	1403.7 ± 4	–
333.15 K, x2 = 0.7	1376.2 ± 4	–
333.15 K, x2 = 0.85	1357.7 ± 4	–
338.15 K, x2 = 0	1479.3 ± 4	–
338.15 K, x2 = 0.15	1453.2 ± 4.1	–
338.15 K, x2 = 0.3	1428.8 ± 4	–
338.15 K, x2 = 0.5	1399 ± 4	–
338.15 K, x2 = 0.7	1371.6 ± 4	–
338.15 K, x2 = 0.85	1353.2 ± 4	–
343.15 K, x2 = 0	1474.4 ± 4	–
343.15 K, x2 = 0.15	1448.4 ± 4.1	–
343.15 K, x2 = 0.3	1424.1 ± 4	–
343.15 K, x2 = 0.5	1394.4 ± 4	–
343.15 K, x2 = 0.7	1367 ± 4	–
343.15 K, x2 = 0.85	1348.6 ± 4	–
348.15 K, x2 = 0	1469.6 ± 4	–
348.15 K, x2 = 0.15	1443.6 ± 4.1	–
348.15 K, x2 = 0.3	1419.4 ± 4	–
348.15 K, x2 = 0.5	1389.8 ± 4	–
348.15 K, x2 = 0.7	1362.3 ± 4	–
348.15 K, x2 = 0.85	1344.1 ± 4	–
353.15 K, x2 = 0	1464.7 ± 4	–
353.15 K, x2 = 0.15	1438.8 ± 4.1	–
353.15 K, x2 = 0.3	1414.7 ± 4	–
353.15 K, x2 = 0.5	1385.2 ± 4	–
353.15 K, x2 = 0.7	1357.7 ± 4	–
353.15 K, x2 = 0.85	1339.7 ± 4	–

CCCCCCn1cc[n+](C)c1C.O=[N+]([O-])c1cn[n-]c1 [1-hexyl-2,3-dimethylimidazolium 4-nitropyrazolide] + CCCCCCCCCCCCCC[P+](CCCCCC)(CCCCCC)CCCCCC.O=S(=O)([N-]S(=O)(=O)C(F)(F)F)C(F)(F)F
Conditions	mass density, x1 = 0.25 [kg/m3]	mass density, x1 = 0.501 [kg/m3]	mass density, x1 = 0.749 [kg/m3]	viscosity, x1 = 0.098 [mPa·s]	viscosity, x1 = 0.303 [mPa·s]	viscosity, x1 = 0.5 [mPa·s]	viscosity, x1 = 0.7 [mPa·s]	viscosity, x1 = 0.898 [mPa·s]
278.15 K	–	–	–	1280 ± 170	1562 ± 210	2212 ± 310	3692 ± 540	7584 ± 1200
283.15 K	1081.8 ± 12	1090.2 ± 12	1104.2 ± 12	871 ± 120	1040 ± 140	1418 ± 190	2223 ± 310	4009 ± 590
288.15 K	1078.2 ± 12	1086.7 ± 12	1100.5 ± 12	606 ± 78	707 ± 92	933 ± 120	1385 ± 190	2241 ± 320
293.15 K	1074.6 ± 12	1083.2 ± 12	1097 ± 12	434 ± 55	495 ± 63	636 ± 83	897 ± 120	1330 ± 180
295.15 K	1073.2 ± 12	1081.7 ± 12	1095.7 ± 12	–	–	–	–	–
298.15 K	1071.1 ± 12	1079.7 ± 12	1093.6 ± 12	319 ± 40	357 ± 45	447 ± 57	605 ± 78	830 ± 110
303.15 K	1067.5 ± 12	1076.2 ± 12	1090.3 ± 12	239 ± 30	264 ± 33	324 ± 41	422 ± 54	545 ± 70
308.15 K	1063.9 ± 12	1072.7 ± 12	1086.9 ± 12	184 ± 23	200 ± 25	240 ± 30	304 ± 38	373 ± 47
313.15 K	1060.4 ± 12	1069.3 ± 12	1083.5 ± 12	144 ± 18	154 ± 19	182 ± 22	223 ± 28	263 ± 33
318.15 K	1057 ± 12	1065.9 ± 12	1080.2 ± 12	115 ± 14	121 ± 15	142 ± 17	169 ± 21	192 ± 24
323.15 K	1053.5 ± 12	1062.6 ± 12	1077 ± 12	93 ± 11	97 ± 12	112 ± 14	131 ± 16	144 ± 18
328.15 K	1050 ± 12	1059.2 ± 12	1073.7 ± 12	–	–	–	–	–
333.15 K	1046.5 ± 12	1055.8 ± 12	1070.5 ± 12	–	–	–	–	–
338.15 K	1043 ± 12	1052.4 ± 12	1067.2 ± 12	–	–	–	–	–
343.15 K	1039.5 ± 12	1049 ± 12	1064 ± 12	–	–	–	–	–
348.15 K	1036.1 ± 12	1045.7 ± 12	1060.7 ± 12	–	–	–	–	–
353.15 K	1032.6 ± 12	1042.3 ± 12	1057.5 ± 12	–	–	–	–	–

CCCCCCn1cc[n+](C)c1.N#Cc1ccc[n-]1 [1-hexyl-3-methylimidazolium 2-cyanopyrrolide] + CCCCCCCCCCCCCC[P+](CCCCCC)(CCCCCC)CCCCCC.O=S(=O)([N-]S(=O)(=O)C(F)(F)F)C(F)(F)F
viscosity [mPa·s]
Conditions	278.15 K	283.15 K	288.15 K	293.15 K	298.15 K	303.15 K	308.15 K	313.15 K	318.15 K	323.15 K
x1 = 0.1	1166 ± 160	806 ± 110	568 ± 73	410 ± 52	303 ± 38	229 ± 28	176 ± 22	138 ± 17	110 ± 13	89 ± 11
x1 = 0.2	1261 ± 170	867 ± 120	605 ± 78	435 ± 55	320 ± 40	241 ± 30	185 ± 23	145 ± 18	115 ± 14	93 ± 11
x1 = 0.3	1258 ± 170	851 ± 110	589 ± 76	419 ± 53	307 ± 39	230 ± 29	176 ± 22	137 ± 17	109 ± 13	87 ± 11
x1 = 0.399	1299 ± 180	876 ± 120	602 ± 78	426 ± 54	310 ± 39	231 ± 29	177 ± 22	137 ± 17	109 ± 13	88 ± 11
x1 = 0.499	1275 ± 170	846 ± 110	575 ± 75	404 ± 51	292 ± 37	216 ± 27	164 ± 20	127 ± 16	100 ± 12	81 ± 10
x1 = 0.6	1379 ± 190	905 ± 120	612 ± 80	423 ± 54	304 ± 38	224 ± 28	169 ± 21	130 ± 16	102 ± 12	82 ± 10
x1 = 0.7	1410 ± 190	910 ± 120	603 ± 79	416 ± 53	295 ± 37	216 ± 27	162 ± 20	125 ± 15	97 ± 12	78 ± 10
x1 = 0.8	1397 ± 190	877 ± 120	571 ± 74	387 ± 50	271 ± 34	196 ± 24	146 ± 18	112 ± 14	87 ± 11	69 ± 8
x1 = 0.9	1461 ± 200	893 ± 120	566 ± 74	374 ± 48	257 ± 32	183 ± 23	135 ± 17	101 ± 12	79 ± 10	62 ± 8
x1 = 1	1540 ± 210	902 ± 120	553 ± 72	355 ± 45	239 ± 30	167 ± 21	122 ± 15	91 ± 11	70 ± 9	55 ± 7
